Biological target: T1, GPR158 (Homo sapiens, UniProt Q5T848)
T1 sequence (Q5T848 24-1215): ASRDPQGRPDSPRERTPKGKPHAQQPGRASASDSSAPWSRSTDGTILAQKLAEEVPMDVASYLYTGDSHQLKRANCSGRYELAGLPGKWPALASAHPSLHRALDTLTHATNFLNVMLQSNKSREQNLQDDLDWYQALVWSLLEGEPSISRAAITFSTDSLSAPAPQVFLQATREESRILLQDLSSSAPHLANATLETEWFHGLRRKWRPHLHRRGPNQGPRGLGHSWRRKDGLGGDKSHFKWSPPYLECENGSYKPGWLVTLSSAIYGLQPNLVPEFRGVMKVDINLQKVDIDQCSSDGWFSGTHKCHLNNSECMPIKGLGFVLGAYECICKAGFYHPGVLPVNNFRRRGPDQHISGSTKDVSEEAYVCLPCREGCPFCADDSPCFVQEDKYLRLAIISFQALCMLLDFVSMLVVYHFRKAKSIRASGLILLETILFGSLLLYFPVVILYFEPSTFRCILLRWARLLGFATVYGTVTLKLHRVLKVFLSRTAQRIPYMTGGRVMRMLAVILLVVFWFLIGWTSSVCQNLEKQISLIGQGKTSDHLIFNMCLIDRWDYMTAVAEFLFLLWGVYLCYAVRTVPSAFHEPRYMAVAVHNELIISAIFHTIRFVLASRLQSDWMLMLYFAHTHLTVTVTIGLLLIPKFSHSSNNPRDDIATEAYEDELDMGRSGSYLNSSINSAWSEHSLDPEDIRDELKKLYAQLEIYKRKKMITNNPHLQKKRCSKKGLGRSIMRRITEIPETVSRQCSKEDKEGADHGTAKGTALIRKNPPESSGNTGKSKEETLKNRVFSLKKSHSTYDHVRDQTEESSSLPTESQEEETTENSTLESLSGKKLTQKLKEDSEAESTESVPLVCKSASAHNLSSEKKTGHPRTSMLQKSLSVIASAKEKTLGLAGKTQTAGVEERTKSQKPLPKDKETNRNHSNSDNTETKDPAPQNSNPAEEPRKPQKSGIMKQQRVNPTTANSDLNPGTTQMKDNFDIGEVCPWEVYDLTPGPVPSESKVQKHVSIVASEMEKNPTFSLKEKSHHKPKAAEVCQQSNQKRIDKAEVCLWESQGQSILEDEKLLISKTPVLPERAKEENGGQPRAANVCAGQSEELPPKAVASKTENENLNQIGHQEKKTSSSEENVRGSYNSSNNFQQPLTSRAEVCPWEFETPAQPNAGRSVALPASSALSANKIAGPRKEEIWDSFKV
Assay: BRET G protein activation assay
Assay type: cell-based
Parameters: expressed in transfected cells; host or cells: HEK293FT
Conditions: panel of Gα subunits; 0.1 mM; HEK293 cells
Protocol: FIGS. 5A-5I. Lack of the effects of glycine or taurine on GPR158 coupling to G proteins. A) Schematic of the assay design to monitor GPCR induced G protein activation. B-I) Representative traces evaluating G protein activation in BRET-based assay. The assay measures generation of the BRET signal between Gβγ and its reporter masGRK3CT-NLuc co-transfected into HEK293 cells with indicated Gα. The reaction is initiated by the addition of glycine (0.1 mM, square symbols) or taurine (0.1 mM triangle symbols) to GPR158 expressing cells. Control reactions conducted in parallel utilized canonical receptors and their ligands at 0.1 mM. The arrow indicates the injection time point of the ligand.
The inventors further tested whether glycine or taurine could induce GPR158 to activate G proteins as canonical GPCRs do. In these experiments, the inventors used a reverse strategy where the inventors monitored generation of the BRET signal in the same assay (FIG. 5A).
Measurements of BRET between Venus-Gβ1γ2 and masGRK3ct-Nluc were performed to monitor the release of free Gβγ dimers after activation of heterotrimers containing Gα subunits in living cells (described in detail in Masuho et al., 2015 (40)). […] An empty vector pcDNA3.1(±) was used in order to normalize the quantity of transfected DNA. […]

| G protein activation via GPR158 | SMILES |
| --- | --- |
| no significant signal generation | NCCS(=O)(=O)O [taurine, 2-aminoethanesulfonic acid] |
| no significant signal generation | NCC(=O)O [glycine] |

Reference: US20260376293A1, “METHODS FOR STUDYING GPR158 PHARMACOLOGY AND IDENTIFICATION OF ITS LIGANDS” (UNIVERSITY OF FLORIDA RESEARCH FOUNDATION, INCORPORATED, priority 2022, published 2026)
